SMILES strings stand for the structures.

Data set [1] deals with J774 macrophages. Briefly: Resazurin Macrophage J774 Viability Assay. In kind it is cell-based. Conditions: Mus musculus. On the procedure:
Potency was assessed using a viability assay based on the survival of the J774 macrophage cell line. Macrophages are closely related to osteoclasts and have been used previously as a model system for osteoclast survival (see, e.g., Luckman et al., 1998, “Heterocycle-containing bisphosphonates cause apoptosis and inhibit bone resorption by preventing protein prenylation: evidence from structure-activity relationships in J774 macrophages,” J. Bone Miner. Res., Vol. 13, pp. 1668-1678). The model is indicative both of effects on bone protection in diseases such as osteoporosis, osteoarthritis and rheumatoid arthritis, and of effects on inflammation since, like osteoclasts, J774 macrophages are dependent for survival on continued NFκB activation.
In vitro potency of test compounds was determined by incubation with J774 macrophages and subsequent determination of cell viability using resazurin.
Resazurin is a redox dye commonly used as an indicator of viability in cultured cells (see, e.g., Anoopkumar-Dukie, 2005, “Resazurin assay of radiation response in cultured cells”, British Journal of Radiology, Vol. 78, pp. 945-947). It is non-toxic to cells and stable in culture medium, allowing continuous measurement of cell proliferation in vitro as either a kinetic or endpoint assay. The assay is based on the ability of viable, metabolically-active cells to reduce resazurin (which is blue and non-fluorescent) to resorufin and dihydroresorufin (which are red and fluorescent) using electrons from reducing species, such as nicotinamide […] and flavin adenine dinucleotide (FADH). This transformation, from oxidised form to reduced form, can be measured either colorimetrically or fluorometrically. Insults that impair cell viability and proliferation also affects the capacity of cells to reduce resazurin, and the rate of dye reduction is directly proportional to the number of viable cells present.
For fluorescence measurements, 530-560 nm excitation and 590 nm emission wavelengths are typically used. For colorimetric measurements, absorbance at 570 nm (reduced form) and 600 nm (oxidised form) is typically measured. A simple calculation is performed to determine the relative quantities of the two species: a high ratio of resorufin (the reduced form) to resazurin (the oxidised form) is an indicator that cells are proliferating and viable. A low ratio indicates cells that are quiescent or non-viable.
J774 cells were plated at 10^4 cells per well in 100 μL αMEM (α Modified Eagle Medium) in 96-well plates and allowed to adhere overnight. The following day, test compounds were prepared as 100 mM solutions in DMSO. These stock solutions were diluted in DMSO and then diluted 1000× in culture medium (αMEM) before being added directly to the wells so as to give the desired final compound concentration. After a 72 hour incubation at 37° C./5% CO2, resazurin (Alamar Blue, Biosource International) was added to each well (1:10 v/v, 10 μL). The plate was then incubated at 37° C. for 3 hours and fluorescence was measured at 590 nm, with a 25 nm bandwidth.
The average results for each test compound were expressed as a percent (%) of the average control value reflecting cell viability. The average values across the concentrations tested were then plotted and an IC50 was calculated by fitting the data to a 4-parameter IC50 equation using either Graph Pad Prism software for Windows (Graph Pad Software, San Diego Calif. USA) or Grafit version 5 (Erithacus Software). Each experiment was repeated twice and the data are presented as the mean IC50 from both experiments.
A general note: Alamar Blue is a resazurin reagent that responds to reducing activity.

The target in data set [2] is T1, hERG ion channel (Homo sapiens, UniProt Q12809).
T1 construct: expressed in transfected cells; host or cells: Chinese Hamster Ovary cells (hERG-CHO)
Briefly: hERG Ion Channel Assay (Q-patch, hERG-CHO cells). Conditions: CHO cells stably transfected with hERG (hERG-CHO), pH 7.4, hERG tail current. The format is cell-based. On the procedure:
The activity of the compounds against the hERG ion channel was tested. The assay was conducted using the automated path-clamp, Q-patch method using stably transfected Chinese Hamster Ovary cells (hERG-CHO). hERG-CHO cells were cultured in F-12 Kaighn's Nutrient Mixture medium (Invitrogen)+10% FBS at 37° C. for 1-3 days. Cells were kept at 30° C. for 24 to 48 hours prior to patch clamping in order to increase the hERG current amplitude. Subsequently, the cells were harvested by trypsinisation, and kept in Serum Free Medium (SFM) in the Q-patch cell preparation state for up to 6 hours at room temperature before being washed and re-suspended in extracellular solution and applied to the patch clamp sites for data recording.
Patch-clamp voltage protocol: After whole cell configuration was achieved, the cell was held at −80 mV. A 50 millisecond pulse to −40 mV was delivered to measure the leaking current, which was subtracted from the tail current on-line. Then the cell was depolarized to +20 mV for 2 seconds, followed by a one second pulse to −40 mV to reveal hERG tail current. This paradigm was delivered once every 5 seconds to monitor the current amplitude.
Extracellular solution: 137 mM NaCl, 4 mM KCl, 1.8 mM CaCl2, 1 mM MgCl2, 10 mM D(+)-glucose, 10 mM HePES buffer (pH adjusted to 7.4 with NaOH).
After the whole cell configuration was achieved, the extracellular solution (control) was applied first and the cell was stabilized for 2 minutes in extracellular solution. The test compound was then applied from low concentrations to high concentrations cumulatively. The cell was incubated with each test concentration for 5 minutes. During each incubation, the cell was repetitively stimulated using the voltage protocol described above, and the tail current amplitude was continuously monitored.
The degree of inhibition (%) was obtained by measuring the tail current amplitude, induced by a one second test pulse to −40 mV after a two second pulse to +20 mV, before and after incubation with the test compound. The difference in current was normalized to control and multiplied by 100 in order to obtain the percent inhibition.
Concentration (log) response curves were fitted to a logistic equation (three parameters assuming complete block of the current at very high test compound concentrations) to generate estimates of the 50% inhibitory concentration (IC50). The concentration-response relationship of each compound was constructed from the percentage reductions of current amplitude by sequential concentrations.
In general terms: Block of hERG is tested as a sign of cardiac risk.

Where [3] appears, read: J774, 72 h, footnote (1): 10 point range 30 μM to 1.5 nM, n = 3 per concentration, Grafit, 72 hour incubation.
Setting [4] is: J774, footnote (2): 12 point range 10 μM to 0.5 nM, n = 4 per concentration, GraphPad Prism, average of original and new experiments where replicates increased.

T1 sequence (Q12809 whole entry): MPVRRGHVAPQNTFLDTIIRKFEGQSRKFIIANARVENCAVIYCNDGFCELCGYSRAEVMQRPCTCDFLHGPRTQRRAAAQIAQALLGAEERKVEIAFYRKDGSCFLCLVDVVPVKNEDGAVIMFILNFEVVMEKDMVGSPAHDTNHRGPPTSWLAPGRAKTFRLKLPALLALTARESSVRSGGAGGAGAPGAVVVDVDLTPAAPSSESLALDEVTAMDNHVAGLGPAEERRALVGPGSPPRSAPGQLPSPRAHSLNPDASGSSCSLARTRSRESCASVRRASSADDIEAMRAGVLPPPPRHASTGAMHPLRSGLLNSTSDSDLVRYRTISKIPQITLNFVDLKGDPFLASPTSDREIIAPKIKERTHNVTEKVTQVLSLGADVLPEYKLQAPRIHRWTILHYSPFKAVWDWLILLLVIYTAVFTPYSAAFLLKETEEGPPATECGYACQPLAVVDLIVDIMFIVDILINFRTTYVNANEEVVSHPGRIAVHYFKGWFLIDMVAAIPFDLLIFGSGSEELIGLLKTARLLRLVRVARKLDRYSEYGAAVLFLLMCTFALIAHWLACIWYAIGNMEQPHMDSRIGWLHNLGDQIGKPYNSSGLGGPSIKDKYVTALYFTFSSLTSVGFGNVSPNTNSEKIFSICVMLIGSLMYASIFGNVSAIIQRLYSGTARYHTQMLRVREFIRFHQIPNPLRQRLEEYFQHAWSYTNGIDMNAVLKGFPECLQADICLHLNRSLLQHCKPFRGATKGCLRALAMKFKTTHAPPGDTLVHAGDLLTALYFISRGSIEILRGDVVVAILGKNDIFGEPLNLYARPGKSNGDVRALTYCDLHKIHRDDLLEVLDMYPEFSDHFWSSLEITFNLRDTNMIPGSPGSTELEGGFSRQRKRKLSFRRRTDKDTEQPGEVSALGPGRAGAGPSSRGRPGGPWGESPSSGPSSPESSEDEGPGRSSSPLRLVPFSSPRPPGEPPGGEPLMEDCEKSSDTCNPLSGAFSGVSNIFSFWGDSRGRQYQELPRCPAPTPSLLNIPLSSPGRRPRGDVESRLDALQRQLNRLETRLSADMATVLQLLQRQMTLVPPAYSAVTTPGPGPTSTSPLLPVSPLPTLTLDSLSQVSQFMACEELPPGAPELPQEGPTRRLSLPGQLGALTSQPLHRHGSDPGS

What is called IC50 is the point on the concentration scale where inhibition reaches its midpoint. A high value points to a need for much substance. Turning to `Cc1cc(S(=O)(=O)N[C@H]2CC[C@H](O)CC2)ccc1-c1ccc(F)cc1F` [ABD735, reference compound], the IC50 in data set [1] (setting [3]) was 70 nM; in data set [1] (setting [4]), 110 nM.
As to `C[C@]1(O)CC[C@@H](NS(=O)(=O)c2ccc(-c3cc(F)c(F)cc3F)cc2)CC1` [HMC-C-10-B, 2′,4′,5′-Trifluoro-N-((1s,4s)-4-hydroxy-4-methylcyclohexyl)-[1,1′-biphenyl]-4-sulfonamide], in data set [1] (setting [4]), 540 nM corresponded to half-maximal inhibition (IC50). In other words, the sub-micromolar range.
Still for that read-out and setting: for `C[C@]1(O)CC[C@H](NS(=O)(=O)c2ccc(-c3ccc(Cl)cc3C#N)c(Cl)c2)CC1` [HMC-C-11-A, 2,4′-Dichloro-2′-cyano-N-((1r,4r)-4-hydroxy-4-methylcyclohexyl)-[1,1′-biphenyl]-4-sulfonamide] the value was 1460 nM.
What is called inhibition is the percentage by which the read-out fell short of the control. Read a high inhibition as a response far below the control. `O=S(=O)(N[C@H]1CC[C@H](O)CC1)c1ccc(-c2ccc(F)cc2F)cc1` [ABD599, reference compound]: the inhibition at 5 min, 10 µM in data set [2] was determined as 74.9%. The compound also yielded a concentration for half-maximal inhibition (IC50) in data set [1] (setting [3]) of 410 nM.
In the case of `C[C@]1(O)CC[C@H](NS(=O)(=O)c2ccc(-c3ccc(C#N)cc3)c(F)c2)CC1` [HMC-C-07-A, 4′-Cyano-2-fluoro-N-((1r,4r)-4-hydroxy-4-methylcyclohexyl)-[1,1′-biphenyl]-4-sulfonamide], in data set [2], the inhibition at 5 min, 10 µM came to 47%. Moreover, the IC50 in data set [1] (setting [4]) was found to be 1660 nM.
With `C[C@]1(O)CC[C@H](NS(=O)(=O)c2ccc(-c3ccc(Cl)cc3C#N)c(F)c2)CC1` [HMC-C-08-A, 4′-Chloro-2′-cyano-2-fluoro-N-((1r,4r)-4-hydroxy-4-methylcyclohexyl)-[1,1′-biphenyl]-4-sulfonamide], in data set [2], the inhibition at 5 min, 10 µM stood at 29%. In data set [1] (setting [4]), half-maximal inhibition (IC50) was put at 1250 nM.
On to `C[C@]1(O)CC[C@H](NS(=O)(=O)c2ccc(-c3ncc(Cl)cc3C#N)cc2)CC1` [HMC-N-05-A, 4-(5-Chloro-3-cyanopyridin-2-yl)-N-((1r,4r)-4-hydroxy-4-methylcyclohexyl)benzenesulfonamide], for which, in data set [2], the inhibition at 5 min, 10 µM worked out at 35%. The same compound registered an IC50 in data set [1] (setting [4]) of 1820 nM.
In the case of `C[C@]1(O)CC[C@H](NS(=O)(=O)c2ccc(-c3ccc(F)cc3F)cc2)CC1` [ABD900], the inhibition at 5 min, 10 µM in data set [2] turned out to be 15.1%. Moreover, the IC50 amounted to 3640 nM in data set [1] (setting [3]) and 2910 nM in data set [1] (setting [4]).
Compound `C[C@]1(O)CC[C@H](NS(=O)(=O)c2ccc(-c3ccc(C#N)cc3Cl)cc2)CC1` [HMC-C-09-A, 2′-Chloro-4′-cyano-N-((1r,4r)-4-hydroxy-4-methylcyclohexyl)-[1,1′-biphenyl]-4-sulfonamide] returned an inhibition at 5 min, 10 µM in data set [2] of 57%. Half-maximal inhibition in data set [1] (setting [4]) (IC50) was put at 690 nM.
The compound `C[C@]1(O)CC[C@@H](NS(=O)(=O)c2ccc(-c3ccc(C#N)cc3)c(F)c2)CC1` [HMC-C-07-B, 4′-Cyano-2-fluoro-N-((1s,4s)-4-hydroxy-4-methylcyclohexyl)-[1,1′-biphenyl]-4-sulfonamide] gave an inhibition at 5 min, 10 µM in data set [2] of 40%. Further, the concentration for half-maximal inhibition (IC50) in data set [1] (J774, first column (original replicates, n = 2), footnote (2): 12 point range 10 μM to 0.5 nM, GraphPad Prism) is 90 nM; in data set [1] (setting [4]), 96 nM.
For the compound `C[C@]1(O)CC[C@@H](NS(=O)(=O)c2ccc(-c3ccc(F)cc3F)cc2)CC1` [ABD899, reference compound], the inhibition at 5 min, 10 µM in data set [2] was 85.2%. In addition, the IC50 in data set [1] (setting [3]) was 270 nM; in data set [1] (setting [4]), 210 nM.

Values taken from patent publication US10005733B2, “N-(4-hydroxy-4-methyl-cyclohexyl)-4-phenyl-benzenesulfonamide and N-(4-hydroxy-4-methyl-cyclohexyl)-4-(2-pyridyl)-benzenesulfonamide compounds and their therapeutic use” (PIMCO 2664 LIMITED, priority 2014, dated 2018).
